Results taken from publication PMC11440035, “Interaction of myricetin, ampelopsin (dihydromyricetin), and their sulfate metabolites with serum albumin, cytochrome P450 (CYP2C9, 2C19, and 3A4) enzymes, and organic anion‐transporting polypeptides (OATP1B1 and OATP2B1)” (Pharmacology Research & Perspectives, 2024).

Assays:
[1] = tested on: T1, human serum albumin (HSA); experiment: Fluorescence quenching of HSA by flavonoids (Stern–Volmer and modified Stern–Volmer); format: binding; conditions: for albumin‐bound fraction: estimated from K, 1:1 stoichiometry, 1 μM flavonoid, 600 μM HSA (≈ 40 g/L)
T1 construct: purchased Merck (Darmstadt, Germany) A1653
Procedure: Fluorescence spectroscopic measurements were performed in phosphate‐buffered saline (PBS, pH 7.4) at room temperature, using a Hitachi F‐4500 spectrofluorometer (Tokyo, Japan). Increasing amounts of flavonoids (final concentrations: 0, 1, 2, 3, 4, 5, and 6 μM) were added to HSA (2 μM), after which fluorescence emission spectra were collected (λ ex = 295 nm). UV–Vis spectra of MYR, M3′S, AMP, and A4′S were also recorded, and their inner‐filter effects were corrected as it has been reported.[37], [38] Flavonoid–HSA interactions were evaluated based on the graphical application of the Stern–Volmer equation[18], [39]: (1) I0/I=1+KSV×Q where K SV is the Stern–Volmer quenching constant, I 0 denotes the emission intensity of HSA alone at 340 nm, I marks the emission signal of albumin at 340 nm in the presence of flavonoids, while [Q] is the molar concentration of the quencher. Thereafter, binding constants (K) of the formed complexes were determined based on the modified Stern–Volmer equation[39], [40]: (2) I0/I0−I=1/fa×K×1/Q+1/fa where f a is the fraction of the accessible fluorophore.
Using the binding/association constants and assuming 1:1 stoichiometry of complex formation, we estimated the bound fractions of M3′S and A4′S in the circulation based on the following equation[41]: (3) K=FH/F×HSA where [F], [HSA], and [FH] are the molar concentrations of the unbound free flavonoid, the unbound free HSA, and the flavonoid–HSA complex, respectively. In these calculations, we hypothesized the presence of 1.0 μM levels of M3′S or A4′S in the presence of 600 μM (≈ 40 g/L) of HSA.

[2] = tested on: T1, human serum albumin (HSA); experiment: Ultrafiltration: displacement of the Site I marker warfarin from HSA; format: binding; conditions: flavonoid 20 μM, warfarin 1 μM, HSA 5 μM, PBS pH 7.4
Procedure: The impacts of MYR, M3′S, AMP, and A4′S on the albumin‐bound fraction of the Site I marker warfarin were examined with the previously reported ultrafiltration method.[17], [18] Briefly, samples contained warfarin (1 μM) and HSA (5 μM) without or with flavonoids (20 μM) in PBS (pH 7.4). After two washing steps of the filters (Amicon Ultra‐0.5 Centrifugal Filter Units, 30 kDa molecular weight cut‐off; Merck, Darmstadt, Germany) with water then PBS (both 500 μL), samples (500 μL) were centrifuged for 10 min (7500 g, 25°C, fixed angle rotor).
Warfarin was quantified using an HPLC system (Jasco, Tokyo, Japan) with an autosampler (AS‐4050), a binary pump (PU‐4180), a fluorescence detector (Jasco FP‐920), and the ChromNAV2 software. The concentrations of warfarin in the filtrate were directly determined by applying the previously described method.[17], [18] […] The fluorescence detection of warfarin was carried out at 310 and 390 nm excitation and emission wavelengths, respectively.

OATP1B1 = molecular target: T2, OATP1B1 (Homo sapiens, UniProt Q9Y6L6); experiment: Uptake of flavonoids by A431-OATP1B1 versus mock cells (APB fluorescence); format: cell-based; conditions: for cellular flavonoid level in OATP1B1‐overexpressing versus mock control cells: 10 μM flavonoid, 15 min, 37°C; for substrate of OATP1B1: conclusion from uptake studies
T2 construct: expressed in transfected cells; host or cells: A431
T2 sequence (Q9Y6L6 1-691): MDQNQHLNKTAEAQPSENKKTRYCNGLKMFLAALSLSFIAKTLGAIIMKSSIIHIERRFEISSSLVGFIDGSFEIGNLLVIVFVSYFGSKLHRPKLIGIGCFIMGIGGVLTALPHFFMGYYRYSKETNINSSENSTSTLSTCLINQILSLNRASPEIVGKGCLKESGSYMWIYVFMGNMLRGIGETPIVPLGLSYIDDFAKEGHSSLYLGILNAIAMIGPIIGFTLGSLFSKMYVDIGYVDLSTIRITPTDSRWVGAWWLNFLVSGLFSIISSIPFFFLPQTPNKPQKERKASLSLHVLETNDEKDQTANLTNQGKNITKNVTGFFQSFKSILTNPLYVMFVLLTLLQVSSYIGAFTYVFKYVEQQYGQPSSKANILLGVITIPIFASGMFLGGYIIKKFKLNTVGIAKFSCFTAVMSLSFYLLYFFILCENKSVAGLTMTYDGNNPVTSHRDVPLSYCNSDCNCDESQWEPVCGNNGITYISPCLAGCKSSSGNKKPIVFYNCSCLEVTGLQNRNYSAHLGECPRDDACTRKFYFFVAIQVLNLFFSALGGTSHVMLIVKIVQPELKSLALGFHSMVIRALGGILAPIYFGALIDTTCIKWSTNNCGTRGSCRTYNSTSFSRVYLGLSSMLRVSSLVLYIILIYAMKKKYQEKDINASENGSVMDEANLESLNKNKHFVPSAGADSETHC
Procedure: Direct uptake of AMP, MYR, and their sulfate metabolites were examined in A431 cells overexpressing OATP1B1 or OATP2B1, and in their mock‐transfected controls using APB as a fluorescence enhancer. One day before the uptake measurements, the cells were seeded onto 96‐well plates at a density of 80 000 cells/well in DMEM (200 μL). The following day, the cell culture medium was removed, and the cells were rinsed thrice with PBS (200 μL). Thereafter, the cells were preincubated with HBSS (50 μL) for 5 min at 37°C. The uptake reaction was initiated by the addition of a further 50 μL of HBSS containing AMP, MYR, or their sulfate conjugates (10 μM). After incubating for 15 min at 37°C, the reaction was stopped by removing the supernatant and rinsing the cells three times with ice‐cold PBS. Then PBS buffer (200 μL) containing APB (250 μg/mL) and BSA (1 mg/mL) was added to each well.[35] The fluorescence was read using an Enspire plate reader using the wavelengths listed in Section 2.7.
The concentration‐dependent uptake of M3′S was also tested under the same conditions, except the cells were incubated with 0–10 μM M3′S for 2 min (OATP1B1) or 5 min (OATP2B1).
To test the effect of BSP (a known inhibitor of OATPs[44]) on the cellular uptake of M3′S, cells were preincubated with HBSS buffer (50 μL) with or without BSP (20 μM) for 5 min at 37°C. Thereafter, we added 50 μL of HBSS containing M3′S (final concentration: 2 μM), and cells were further incubated at 37°C for 2 min (OATP1B1) or 5 min (OATP2B1). The reaction was stopped by removing the supernatant. After washing the cells with ice‐cold PBS, a PBS buffer with APB/BSA was added. Fluorescence was determined by applying an Enspire plate reader at excitation/emission wavelengths of 480/540 nm.

O=C1c2c(O)cc(O)cc2OC(c2cc(O)c(OS(=O)(=O)O)c(O)c2)C1O (stereo not shown) [A4′S, ampelopsin‐4′‐O‐sulfate]
albumin‐bound fraction [1]: ~94%
effect on the filtered fraction of warfarin [2]: not affected
cellular flavonoid level in OATP1B1‐overexpressing versus mock control cells (OATP1B1): did not show statistically significant differences
substrate of OATP1B1 (OATP1B1): not substrates

O=c1c(O)c(-c2cc(O)c(O)c(OS(=O)(=O)O)c2)oc2cc(O)cc(O)c12 [M3′S, myricetin‐3′‐O‐sulfate]
albumin‐bound fraction [1]: exceeds 99%
effect on the filtered fraction of warfarin [2]: moderate increases
concentration‐dependent uptake in OATP1B1‐overexpressing cells (OATP1B1; 0–10 μM, 2 min): saturable uptake
cellular flavonoid level in OATP1B1‐overexpressing versus mock control cells (OATP1B1): more than two‐fold
substrate of OATP1B1 (OATP1B1): substrate

O=c1c(O)c(-c2cc(O)c(O)c(O)c2)oc2cc(O)cc(O)c12 [MYR, myricetin]
effect on the filtered fraction of warfarin [2]: moderate increases
cellular flavonoid level in OATP1B1‐overexpressing versus mock control cells (OATP1B1): did not show statistically significant differences
substrate of OATP1B1 (OATP1B1): not substrates

O=C1c2c(O)cc(O)cc2O[C@H](c2cc(O)c(O)c(O)c2)[C@H]1O [AMP, ampelopsin]
binding constant (K) of flavonoid–HSA complex ([1]; modified Stern–Volmer equation, HSA 2 μM, flavonoid 0–6 μM, PBS pH 7.4, λex 295 nm, λem 340 nm): 5.5 × 10^4 L/mol and ≈ 10^4 L/mol
effect on the filtered fraction of warfarin [2]: not affected
cellular flavonoid level in OATP1B1‐overexpressing versus mock control cells (OATP1B1): did not show statistically significant differences
substrate of OATP1B1 (OATP1B1): not substrates
